Assay results published in patent publication US10428082B2, “Triazole derivatives of melampomagnolide B and methods of use thereof” (BioVentures, LLC, priority 2016, dated 2019).
Like-named read-outs stand apart in the source and are kept apart here.

Columns and labels:
M9 ENL1 cell line = assay: Anti-leukemic activity, Annexin V/7-AAD flow cytometry; assay type: cell-based; conditions: for EC50: 24 h of drug exposure, read-out: M9ENL1 (EC50)
Procedure: The newly synthesized triazole derivatives of melampomagnolide B were screened for anti-leukemic activity against M9 ENL1 and primary AML cell lines; the latter were obtained with informed consent from human patients. Evaluations were performed after 24 h of drug exposure using flow cytometric analysis by labeling with Annexin V and 7-aminoactinomycin D (7-AAD) to delineate apoptotic cell populations. In all experiments PTL was included as a reference control.

786-0 = assay: NCI 60 growth inhibition; assay type: cell-based, human; conditions: 786-0, Renal Cancer
Procedure: (§1) The above triazole derivatives of melampomagnolide B were evaluated for growth inhibitory properties against an NCI panel of 60 human cancer cell lines derived from nine human cancer cell types, grouped into disease sub-panels that represent leukemia, lung, colon, central nervous system (CNS), melanoma, renal, ovary, breast, and prostate cancer cells. Growth inhibitory (GI50) effects were measured as a function of the variation of optical density as a percentage of control.

CCRF-CEM = assay: NCI 60 growth inhibition; assay type: cell-based, human; conditions: Leukemia
Procedure: as §1

COLO 205 = assay: NCI 60 growth inhibition; assay type: cell-based, human; conditions: COLO 205, Colon Cancer
Procedure: as §1

DU-145 = assay: NCI 60 growth inhibition; assay type: cell-based, human; conditions: DU-145, Prostate Cancer
Procedure: as §1

EKVX = assay: NCI 60 growth inhibition; assay type: cell-based, human; conditions: Non-Small Cell Lung Cancer
Procedure: as §1

HCC-2998 = assay: NCI 60 growth inhibition; assay type: cell-based, human; conditions: HCC-2998, Colon Cancer
Procedure: as §1

HCT-116 = assay: NCI 60 growth inhibition; assay type: cell-based, human; conditions: HCT-116, Colon Cancer
Procedure: as §1

HL-60(TB) = assay: NCI 60 growth inhibition; assay type: cell-based, human; conditions: Leukemia
Procedure: as §1

HOP-62 = assay: NCI 60 growth inhibition; assay type: cell-based, human; conditions: HOP-62, Non-Small Cell Lung Cancer
Procedure: as §1

HOP-92 = assay: NCI 60 growth inhibition; assay type: cell-based, human; conditions: HOP-92, Non-Small Cell Lung Cancer
Procedure: as §1

HS 578T = assay: NCI 60 growth inhibition; assay type: cell-based, human; conditions: Breast Cancer
Procedure: as §1

IGROV1 = assay: NCI 60 growth inhibition; assay type: cell-based, human; conditions: IGROV1, Ovarian Cancer
Procedure: as §1

K-562 = assay: NCI 60 growth inhibition; assay type: cell-based, human; conditions: K-562, Leukemia
Procedure: as §1

MALME-3M = assay: NCI 60 growth inhibition; assay type: cell-based, human; conditions: Melanoma
Procedure: as §1

MDA-MB-231/ATCC = assay: NCI 60 growth inhibition; assay type: cell-based, human; conditions: Breast Cancer
Procedure: as §1

MDA-MB-435 = assay: NCI 60 growth inhibition; assay type: cell-based, human; conditions: MDA-MB-435, Melanoma
Procedure: as §1

MDA-MB-468 = assay: NCI 60 growth inhibition; assay type: cell-based, human; conditions: MDA-MB-468, Breast Cancer
Procedure: as §1

MOLT-4 = assay: NCI 60 growth inhibition; assay type: cell-based, human; conditions: MOLT-4, Leukemia
Procedure: as §1

NCI-H226 = assay: NCI 60 growth inhibition; assay type: cell-based, human; conditions: NCI-H226, Non-Small Cell Lung Cancer
Procedure: as §1

NCI-H23 = assay: NCI 60 growth inhibition; assay type: cell-based, human; conditions: NCI-H23, Non-Small Cell Lung Cancer
Procedure: as §1

NCI-H322M = assay: NCI 60 growth inhibition; assay type: cell-based, human; conditions: Non-Small Cell Lung Cancer
Procedure: as §1

NCI-H460 = assay: NCI 60 growth inhibition; assay type: cell-based, human; conditions: NCI-H460, Non-Small Cell Lung Cancer
Procedure: as §1

NCI/ADR-RES = assay: NCI 60 growth inhibition; assay type: cell-based, human; conditions: Ovarian Cancer
Procedure: as §1

OVCAR-3 = assay: NCI 60 growth inhibition; assay type: cell-based, human; conditions: OVCAR-3, Ovarian Cancer
Procedure: as §1

PC-3 = assay: NCI 60 growth inhibition; assay type: cell-based, human; conditions: PC-3, Prostate Cancer
Procedure: as §1

RPMI-8226 = assay: NCI 60 growth inhibition; assay type: cell-based, human; conditions: RPMI-8226, Leukemia
Procedure: as §1

RXF 393 = assay: NCI 60 growth inhibition; assay type: cell-based, human
Procedure: as §1

SF-268 = assay: NCI 60 growth inhibition; assay type: cell-based, human; conditions: SF-268, CNS Cancer
Procedure: as §1

SK-MEL-28 = assay: NCI 60 growth inhibition; assay type: cell-based, human; conditions: SK-MEL-28, Melanoma
Procedure: as §1

SK-MEL-2 = assay: NCI 60 growth inhibition; assay type: cell-based, human; conditions: SK-MEL-2, Melanoma
Procedure: as §1

SK-OV-3 = assay: NCI 60 growth inhibition; assay type: cell-based, human; conditions: SK-OV-3, Ovarian Cancer
Procedure: as §1

SW-620 = assay: NCI 60 growth inhibition; assay type: cell-based, human; conditions: SW-620, Colon Cancer
Procedure: as §1

T-47D = assay: NCI 60 growth inhibition; assay type: cell-based, human; conditions: Breast Cancer
Procedure: as §1

UACC-62 = assay: NCI 60 growth inhibition; assay type: cell-based, human; conditions: Homo sapiens; UACC-62, Melanoma, Table 2
Procedure: as §1

[1] = tested on: NCI panel of 60 human cancer cell lines; assay: NCI 60 growth inhibition, ranges over groups of cell lines; assay type: cell-based; conditions: read-out: GI50
Procedure: as §1

CAKI-1 = assay: NCI 60 growth inhibition; assay type: cell-based, human; conditions: CAKI-1, Renal Cancer, Table 3
Procedure: as §1

For `C=C1C(=O)O[C@H]2[C@H]1CC/C(Cn1cc(-c3cc(C(F)(F)F)cc(C(F)(F)F)c3)nn1)=C\CC[C@@]1(C)O[C@@H]21` [JVM 4-29, (1aR,7aS,10aS,10bS,E)-5-((4-(3,5-bis(Trifluoromethyl)phenyl)-1H-1,2,3-triazol-1-yl)methyl)-1a-methyl-8-methylene-2,3,6,7,7a,8,10a,10b-octahydrooxireno[2′,3′:9,10]cyclodeca[1,2-b]furan-9(1aH)-one], the EC50 (M9 ENL1 cell line; M9-ENL1, 24 h) was 600 nM, the “cytotoxicity compared with parthenolide” value (M9 ENL1 cell line; M9 ENL1 cell assay) was “more cytotoxic than parthenolide” and the “fold more potent than parthenolide (PTL)” value (M9 ENL1 cell line; M9 ENL1 cells) was 8.6 fold. For the same compound, the GI50 (786-0; Homo sapiens, Table 2) was 160 nM, the GI50 (CCRF-CEM; Homo sapiens, Table 2) was 690 nM and the GI50 (COLO 205; Homo sapiens, Table 2) was 140 nM. The GI50 (DU-145; Homo sapiens, Table 2) was 720 nM, the GI50 (EKVX; Homo sapiens, Table 2) was 1500 nM and the GI50 (HCC-2998; Homo sapiens, Table 2) was 1170 nM. For the same compound, the GI50 (HCT-116; Homo sapiens, Table 2) was 150 nM, the GI50 (HL-60(TB); Homo sapiens, HL-60(TB), Table 2) was 190 nM and the GI50 (HOP-62; Homo sapiens, Table 2) was 1560 nM. It also gave a GI50 (HOP-92; Homo sapiens, Table 2) of 340 nM, a GI50 (HS 578T; Homo sapiens, Table 2) of 1030 nM and a GI50 (IGROV1; Homo sapiens, IGROV-1, Table 2) of 840 nM. It also gave a GI50 (K-562; Homo sapiens, K562, Table 2) of 230 nM, a GI50 (MALME-3M; Homo sapiens, Table 2) of 520 nM and a GI50 (MDA-MB-231/ATCC; Homo sapiens, Table 2) of 330 nM. It also gave a GI50 (MDA-MB-435; Homo sapiens, Table 2) of 740 nM, a GI50 (MDA-MB-468; Homo sapiens, Table 2) of 420 nM and a GI50 (MOLT-4; Homo sapiens, Table 2) of 190 nM. The GI50 (NCI-H226; Homo sapiens, Table 2) was 1650 nM, the GI50 (NCI-H23; Homo sapiens, Table 2) was 1120 nM and the GI50 (NCI-H322M; Homo sapiens, Table 2) was 1670 nM. The GI50 (NCI-H460; Homo sapiens, Table 2) was 1220 nM, the GI50 (NCI/ADR-RES; Homo sapiens, Table 2) was 1050 nM and the GI50 (OVCAR-3; Homo sapiens, Table 2) was 150 nM. It also gave a GI50 (PC-3; Homo sapiens, Table 2) of 830 nM, a GI50 (RPMI-8226; Homo sapiens, Table 2) of 220 nM and a GI50 (RXF 393; Homo sapiens, RXF 393, RXF 393, Renal Cancer, Table 2) of 20 nM. The GI50 (RXF 393; Homo sapiens, RXF 393, RXF 393 renal cancer cell line) was 27 nM, the GI50 (SF-268; Homo sapiens, Table 2) was 1080 nM and the GI50 (SK-MEL-28; Homo sapiens, Table 2) was 460 nM. For the same compound, the GI50 (SK-MEL-2; Homo sapiens, Table 2) was 340 nM, the GI50 (SK-OV-3; Homo sapiens, Table 2) was 1860 nM and the GI50 (SW-620; Homo sapiens, Table 2) was 190 nM. It also gave a GI50 (T-47D; Homo sapiens, T47D, Table 2) of 330 nM, a GI50 (UACC-62) of 340 nM and a GI50 ([1]; all the cell lines in the leukemia sub-panel) of 100 to 500 nM. The GI50 ([1]; most of the solid tumor cell lines in the panel) was 120 to 880 nM.

Compound `C=C1C(=O)O[C@H]2[C@H]1CC/C(Cn1cc(-c3ccsc3)nn1)=C\CC[C@@]1(C)O[C@@H]21` [JVM 4-53] has an EC50 (M9 ENL1 cell line) of 2700 nM, a GI50 (786-0; Table 3) of 1760 nM and a GI50 (CAKI-1) of 1060 nM. It also gave a GI50 (CCRF-CEM; Table 3) of 1630 nM, a GI50 (COLO 205; Table 3) of 1450 nM and a GI50 (DU-145; Table 3) of 1430 nM. It also gave a GI50 (EKVX; Table 3) of 2330 nM, a GI50 (HCC-2998; Table 3) of 1840 nM and a GI50 (HCT-116; Table 3) of 1160 nM. It also gave a GI50 (HL-60(TB); HL-60 (TB), Table 3) of 1910 nM, a GI50 (HOP-62; Table 3) of 4900 nM and a GI50 (HOP-92; Table 3) of 1660 nM. The GI50 (HS 578T; Table 3) was 2820 nM, the GI50 (IGROV1; Table 3) was 1920 nM and the GI50 (K-562; Table 3) was 2510 nM. The GI50 (MALME-3M; Table 3) was 1610 nM, the GI50 (MDA-MB-231/ATCC; Table 3) was 1750 nM and the GI50 (MDA-MB-435; Table 3) was 1850 nM. It also gave a GI50 (MDA-MB-468; Table 3) of 1280 nM, a GI50 (MOLT-4; Table 3) of 2590 nM and a GI50 (NCI-H226; Table 3) of 2090 nM. It also gave a GI50 (NCI-H23; Table 3) of 1820 nM, a GI50 (NCI-H322M; Table 3) of 10500 nM and a GI50 (NCI-H460; Table 3) of 4710 nM. It also gave a GI50 (NCI/ADR-RES; Table 3) of 3790 nM, a GI50 (OVCAR-3; Table 3) of 1060 nM and a GI50 (PC-3; Table 3) of 4210 nM. It also gave a GI50 (RPMI-8226; Table 3) of 2450 nM, a GI50 (RXF 393; RXF 393, Renal Cancer, Table 3) of 1070 nM and a GI50 (SF-268; Table 3) of 2530 nM. It also gave a GI50 (SK-MEL-28; Table 3) of 1810 nM, a GI50 (SK-MEL-2; Table 3) of 2270 nM and a GI50 (SK-OV-3; Table 3) of 17400 nM. For the same compound, the GI50 (SW-620; Table 3) was 1320 nM and the GI50 (T-47D; Table 3) was 2030 nM.
